How the values were obtained:
[1] = Tmax in healthy human at 300 mg/kg, po administered as single dose after 1 day; assay type: ADME, organism-based; set-up: dose 300 mg/kg, route oral; settings: in vivo
[2] = Tmax in healthy human at 200 mg/kg, po once daily for 7 days; assay type: ADME, organism-based; set-up: dose 200 mg/kg, route oral; settings: in vivo
[3] = AUC (0 to infinity) in healthy human at 200 mg/kg, po administered as single dose after 1 day; assay type: ADME, organism-based; set-up: time infinity, dose 200 mg/kg, route oral; settings: plasma
[4] = Tmax in healthy human at 200 mg/kg, po once daily for 7 days measured after 1 day of last dose; assay type: ADME, organism-based; set-up: dose 200 mg/kg, route oral; settings: in vivo
[5] = AUC (0 to 24 hrs) in healthy human at 30 mg/kg, po after 10 days; assay type: ADME, organism-based; set-up: time < 24 hr, dose 30 mg/kg, route oral; settings: plasma
Homo sapiens [6] = test: Toxicity in healthy human assessed as back pain at 300 mg/kg, po administered as single dose; assay type: organism-based; set-up: dose 300 mg/kg, route oral; settings: in vivo
Homo sapiens [7] = test: Toxicity in healthy human assessed as pollakiuria at 300 […], po administered as single dose; assay type: organism-based; set-up: route oral; settings: in vivo
[8] = Cmax in healthy human at 200 mg/kg, po once daily for 7 days; assay type: ADME, organism-based; set-up: dose 200 mg/kg, route oral; settings: in vivo
Homo sapiens [9] = test: Toxicity in healthy human assessed as headache at 200 […], po administered as single dose; assay type: organism-based; set-up: route oral; settings: in vivo
[10] = AUC (0 to infinity) in healthy human at 300 mg/kg, po administered as single dose after 1 day; assay type: ADME, organism-based; set-up: time infinity, dose 300 mg/kg, route oral; settings: plasma
[11] = Cmax in healthy human at 200 mg/kg, po administered as single dose after 1 day; assay type: ADME, organism-based; set-up: dose 200 mg/kg, route oral; settings: in vivo
[12] = AUC (0 to 24 hrs) in healthy human at 200 mg/kg, po once daily for 7 days measured after 1 day of last dose; assay type: ADME, organism-based; set-up: time < 24 hr, dose 200 mg/kg, route oral; settings: plasma
Homo sapiens [13] = test: Toxicity in healthy human assessed as fatigue at 250 […], po administered as single dose; assay type: organism-based; set-up: route oral; settings: in vivo
[14] = AUC (0 to 24 hrs) in healthy human at 150 […], po once daily for 7 days measured after 1 day of last dose; assay type: ADME, organism-based; set-up: time < 24 hr, dose 150 mg/kg, route oral; settings: plasma
Homo sapiens [15] = test: Toxicity in healthy human assessed as increase in blood […] at 300 […], po once daily for 7 days; assay type: organism-based; set-up: route oral; settings: in vivo, 168 h
Homo sapiens [16] = test: Toxicity in healthy human assessed as nausea at 200 […], po once daily for 7 days; assay type: organism-based; set-up: route oral; settings: in vivo, 168 h
Homo sapiens [17] = test: Toxicity in healthy human assessed as EEG abnormality at 300 mg/kg, po administered as single dose; assay type: organism-based; set-up: dose 300 mg/kg, route oral; settings: in vivo
Homo sapiens [18] = test: Toxicity in healthy human assessed as pollakiuria at 250 […], po administered as single dose; assay type: organism-based; set-up: route oral; settings: in vivo
[19] = Tmax in healthy human at 150 […], po once daily for 7 days measured after 1 day of last dose; assay type: ADME, organism-based; set-up: dose 150 mg/kg, route oral; settings: in vivo
[20] = Cmax in healthy human at 250 mg/kg, po once daily for 7 days measured after 1 day of last dose; assay type: ADME, organism-based; set-up: dose 250 mg/kg, route oral; settings: in vivo
Homo sapiens [21] = test: Toxicity in healthy human assessed as puncture site pain at 250 […], po once daily for 7 days; assay type: organism-based; set-up: route oral; settings: in vivo, 168 h
Homo sapiens [22] = test: Toxicity in healthy human assessed as EEG abnormality at 250 mg/kg, po administered as single dose; assay type: organism-based; set-up: dose 250 mg/kg, route oral; settings: in vivo
Homo sapiens [23] = test: Toxicity in healthy human assessed as EEG abnormality at 250 mg/kg, po once daily for 7 days; assay type: organism-based; set-up: dose 250 mg/kg, route oral; settings: in vivo, 168 h
[24] = AUC (0 to 24 hrs) in healthy human at 150 […], po after 10 days; assay type: ADME, organism-based; set-up: time < 24 hr, dose 150 mg/kg, route oral; settings: plasma
Homo sapiens [25] = test: Cardiotoxicity in healthy human assessed as change in corrected QT interval at 150 […], po after 10 days by ECG; assay type: toxicity, organism-based; set-up: dose 150 mg/kg, route oral; settings: in vivo, 240 h
[26] = Tmax in healthy human at 150 […], po after 10 days; assay type: ADME, organism-based; set-up: dose 150 mg/kg, route oral; settings: in vivo
Homo sapiens [27] = test: Toxicity in healthy human assessed as fatigue at 200 […], po administered as single dose; assay type: organism-based; set-up: route oral; settings: in vivo
[28] = Cmax in healthy human at 200 mg/kg, po once daily for 7 days measured after 1 day of last dose; assay type: ADME, organism-based; set-up: dose 200 mg/kg, route oral; settings: in vivo
Homo sapiens [29] = test: Toxicity in healthy human assessed as headache at 250 […], po once daily for 7 days; assay type: organism-based; set-up: route oral; settings: in vivo, 168 h
[30] = Cmax in healthy human at 150 […], po once daily for 7 days; assay type: ADME, organism-based; set-up: dose 150 mg/kg, route oral; settings: in vivo
[31] = Tmax in healthy human at 200 mg/kg, po administered as single dose after 1 day; assay type: ADME, organism-based; set-up: dose 200 mg/kg, route oral; settings: in vivo
Homo sapiens [32] = test: Toxicity in healthy human assessed as fatigue at 250 […], po once daily for 7 days; assay type: organism-based; set-up: route oral; settings: in vivo, 168 h
[33] = Cmax in healthy human at 30 mg/kg, po after 10 days; assay type: ADME, organism-based; set-up: dose 30 mg/kg, route oral; settings: in vivo
Homo sapiens [34] = test: Toxicity in healthy human assessed as nausea at 300 […], po administered as single dose; assay type: organism-based; set-up: route oral; settings: in vivo
[35] = AUC (0 to 24 hrs) in healthy human at 200 mg/kg, po once daily for 7 days; assay type: ADME, organism-based; set-up: time < 24 hr, dose 200 mg/kg, route oral; settings: plasma

COC[C@@H](c1ccc(C(F)(F)F)cc1)N1CCN(C2(C)CCN(C(=O)c3c(C)ncnc3C)CC2)C[C@@H]1C [VICRIVIROC]
Tmax [1]: 2.9 h
Tmax [2]: 2 h
AUC(0-inf) [3]: 6050 ng·h/mL
Tmax [4]: 1.75 h
AUC at 24 h [5]: 6670 ng·h/mL
Activity (Homo sapiens [6]): 20%
Activity (Homo sapiens [7]): 0%
Cmax [8]: 949 ng/mL
Activity (Homo sapiens [9]): 0%
AUC(0-inf) [10]: 10100 ng·h/mL
Cmax [11]: 731 ng/mL
AUC at 24 h [12]: 5390 ng·h/mL
Activity (Homo sapiens [13]): 13%
AUC at 24 h [14]: 3260 ng·h/mL
Activity (Homo sapiens [15]): 10%
Activity (Homo sapiens [16]): 13%
Activity (Homo sapiens [17]): 13%
Activity (Homo sapiens [18]): 0%
Tmax [19]: 1.75 h
Cmax [20]: 791 ng/mL
Activity (Homo sapiens [21]): 17%
Activity (Homo sapiens [22]): 0%
Activity (Homo sapiens [23]): 38%
AUC at 24 h [24]: 32200 ng·h/mL
Activity (Homo sapiens [25]): Non-toxic
Tmax [26]: 1.5 h
Activity (Homo sapiens [27]): 0%
Cmax [28]: 838 ng/mL
Activity (Homo sapiens [29]): 25%
Cmax [30]: 649 ng/mL
Tmax [31]: 2 h
Activity (Homo sapiens [32]): 0%
Cmax [33]: 403 ng/mL
Activity (Homo sapiens [34]): 13%
AUC at 24 h [35]: 8140 ng·h/mL

Reference: ChEMBL document CHEMBL1255486, “Effect of vicriviroc on the QT/corrected QT interval and central nervous system in healthy subjects” (Antimicrob Agents Chemother, 2010)
